Measurements taken from BindingDB's records for patent US10519177 (Plexxikon Inc., 2019).

Biological target: T1, Bromodomain-containing protein 4 [1-477] (Human, UniProt O60885)
T1 construct: 1-477

Row | IC50 [nM] | Structure (SMILES)
1 | < 1000 | Cc1noc(C)c1-c1cnc2c(-c3ccc(C(=O)O)cc3)cn(CC3CC4(CCC4)C3)c2c1 [US10519177, Compound P-0603]
2 | < 1000 | Cc1noc(C)c1-c1cnc2c(I)cn(Cc3ccccc3C#N)c2c1 [US10519177, Compound P-0921]
3 | < 1000 | COC(=O)c1ccc(-c2c[nH]c3cc(-c4c(C)noc4C)cnc23)cc1 [US10519177, Compound P-1033]
